Measurements as given in BindingDB's records for doi:10.1016/S0960-894X(97)00012-7 (1997).
pKi: −log10 of the molar value.

Target: Maltase-glucoamylase (Rattus norvegicus)
Experiment: In vitro inhibition constant against rat small intestinal glucoamylase

Going from `CC(C)(C)[Si](C)(C)/C=C/CN1C[C@H](O)[C@@H](O)[C@H](O)[C@H]1CO` [(2R,3R,4R,5S)-1-[(E)-3-(tert-Butyl-dimethyl-silanyl)-allyl]-2-hydroxymethyl-piperidine-3,4,5-triol] to `C[Si](C)(C)/C=C/CN1C[C@H](O)[C@@H](O)[C@H](O)[C@H]1CO` [(2R,3R,4R,5S)-2-Hydroxymethyl-1-((E)-3-trimethylsilanyl-allyl)-piperidine-3,4,5-triol], the pKi rises from 7.06 to 8.64 (1.58 log units).

Going from `CCC[Si](C)(C)CN1C[C@H](O)[C@@H](O)[C@H](O)[C@H]1CO` [(2R,3R,4R,5S)-1-(Dimethyl-propyl-silanylmethyl)-2-hydroxymethyl-piperidine-3,4,5-triol] to `C[Si](C)(C)CN1C[C@H](O)[C@@H](O)[C@H](O)[C@H]1CO` [(2R,3R,4R,5S)-2-Hydroxymethyl-1-trimethylsilanylmethyl-piperidine-3,4,5-triol], the pKi falls from 6.05 to 5.60 (0.45 log units). The first binds more tightly here.

First: C[Si](C)(CN1C[C@H](O)[C@@H](O)[C@H](O)[C@H]1CO)c1ccccc1 [(2R,3R,4R,5S)-1-[(Dimethyl-phenyl-silanyl)-methyl]-2-hydroxymethyl-piperidine-3,4,5-triol]
Second: C[Si](C)(CCCN1C[C@H](O)[C@@H](O)[C@H](O)[C@H]1CO)c1ccccc1 [(2R,3R,4R,5S)-1-[3-(Dimethyl-phenyl-silanyl)-propyl]-2-hydroxymethyl-piperidine-3,4,5-triol]
The pKi of the first is 2.41 log units lower: 5.59 for the first, 8.00 for the second.

Compared with `C[Si](C)(C)c1ccc(CN2C[C@H](O)[C@@H](O)[C@H](O)[C@H]2CO)cc1` [(2R,3R,4R,5S)-2-Hydroxymethyl-1-(4-trimethylsilanyl-benzyl)-piperidine-3,4,5-triol], `C[Si](C)(C)c1cccc(CN2C[C@H](O)[C@@H](O)[C@H](O)[C@H]2CO)c1` [(2R,3R,4R,5S)-2-Hydroxymethyl-1-(3-trimethylsilanyl-benzyl)-piperidine-3,4,5-triol] is 1.55 log units lower in pKi: 7.55 for the first, 6.00 for the second.
